pIC50: −log10 of the molar value.
Key:
[1] = molecular target: T1, Human recombinant integrin αvβ3 (Homo sapiens, UniProt P05106+P06756); test: Solid phase receptor assay, αvβ3 (vitronectin); format: binding
T1 construct: purchased R&D Systems
Method: The assay was performed according to the method described in International Patent Publication WO 2014/015054 A1 “Beta Amino Acid Derivatives As Integrin Antagonists.” Briefly, 96-well plates were coated overnight with purified fibronectin or vitronectin (R&D Systems) in TBS+ buffer (25 mM Tris 7.4, 137 mM NaCl, 2.7 mM KCl, 1 mM CaCl2, 1 mM MgCl2, 1 mM MnCl2). Compound A was added at different concentrations to recombinant human integrin proteins (R&D Systems) reconstituted in TBS+/0.1% bovine serum albumin, and 50 μL of this mixture were added to the empty wells of the coated plate and incubated for 1-2 hours. After 3 washes, 50 μL of biotinylated antibody (R&D Systems) in TBS+/0.1% bovine serum albumin were added. The procedure continued with three more washes, addition of 50 μL of streptavidin-conjugated horseradish peroxidase (R&D Systems), and incubation for 20 minutes. After 3 more washes, 50 μL of tetramethylbenzidine (TMB) substrate (SIGMA) were added and plates were read after 20 min by colorimetric detection at 650 nm wavelength in an EnVision Multilabel Plate Reader (Perkin Elmer). The concentrations of fibronectin used were: 2 μg/mL for the α5β1 assay and 5 μg/mL for the αvβ1 assay. The concentrations of vitronectin used were: 1 μg/mL for the αvβ3 assay and 0.25 μg/mL for the αvβ5 assay. […]

[2] = molecular target: T2, Human recombinant integrin αvβ1 (Homo sapiens, UniProt P05556+P06756); test: Thermal shift assay (differential scanning fluorimetry), αvβ1; format: binding; conditions: αvβ1, 20 μM Compound A
T2 construct: purchased R&D Systems
Method: Differential scanning fluorimetry was performed on a LightCycler 480 II, real-time PCR instrument (Roche Diagnostics). Human recombinant integrins from R&D Systems (αvβ1, αvβ3 and α5β1) were reconstituted at a concentration of […] in assay buffer (20 mM HEPES, pH=7.3, 100 mM NaCl, 1 mM MgCl2, 1 mM MnCl2) and diluted in assay buffer with Sypro orange (SIGMA) to a final concentration of 400 nM integrin and 5× Sypro orange. A volume of 4.9 μL of this mixture of protein and dye was transferred to a 384-well plate and 100 nL of DMSO or Compound A, dissolved in DMSO, were added using an Echo 555 instrument (Labcyte). The final concentration of Compound A in the assay was 20 μM. After mixing, the assay plate was sealed, spun at 1,000×g for two minutes, and subsequently heated from 25 to 99° C. over the course of 31 min in the LightCycler 480 II instrument. Fluorescence intensity was measured using excitation/emission wavelengths of 465 and 580 nm, respectively. Changes in protein thermal stability (ΔTm) upon compound binding were analyzed by using LightCycler 480 (software provided by the manufacturer).

[3] = system: male obese ZSF1 rats (diabetic nephropathy model); test: ZSF1 rat study: renal fibrosis score (histology); format: in vivo; conditions: for renal fibrosis score (expressed as 0-5): obese ZSF1 rats, week 28
Method: (§1) The effects of Compound A (“A”) on renal function, plasma triglycerides, plasma cholesterol, kidney collagen I, kidney collagen III, renal histology, glomerular filtration rate, fibrosis score, and mRNA gene expression (profibrotic genes and integrin β3) were evaluated in male obese ZSF1 rats (a hybrid F1 of Zucker diabetic fatty rat and spontaneously hypertensive heart failure rat; a diabetic nephropathy model) when administered as in-feed for 28 weeks. Sixty obese male ZSF1 rats were randomized to five groups: Obese control (n=12), Compound A 60 mpk (n=12), Compound A 200 mpk (n=12), Compound A 400 mpk (n=12), Enalapril 10 mpk (n=12); Eight lean male ZSF1 rats were used for normal control. Renal functional changes were monitored by blood and urine analysis following in-feed dosing for 28 weeks. Compound exposure was also monitored during the study.
Upon completion of the study, animals were euthanized and blood and organs (kidney, heart, aorta, eyes, and lumber vertebrae (LV1-LV5) and left femur) were collected for histology assessment (including EM for the kidneys) or DEXA scan (lumber vertebrae and left femur). Kidney tissues were fixed in 10% formalin and then paraffin embedded. Tissue sections were stained with hematoxylin and eosin (H&E), periodic acid-Schiff (PAS), and Masson's trichrome and evaluated under light microscope. The severity of histopathologic changes in renal tubules, interstitium, vasculature, and glomeruli were graded on a 1 to 5 scale corresponding to minimal, mild, moderate, marked, and severe as described previously. Sections from both kidneys were examined. Collagen deposition in the kidney was graded on a 1 to 5 scale corresponding to minimal, mild, moderate, marked, and severe, based on the blue stained area size and intensity.

[4] = system: male obese ZSF1 rats (diabetic nephropathy model); test: ZSF1 rat study: kidney mRNA expression of profibrotic genes and integrin beta3; format: in vivo; conditions: for Collagen I (a1) expression in the kidney / Collagen III (a1) expression in the kidney / Integrin beta3 expression in the kidney / PAI-1 expression in the kidney: obese ZSF1 rats, week 28
Method: as §1

T2 sequence (P06756 31-992 limits assumed): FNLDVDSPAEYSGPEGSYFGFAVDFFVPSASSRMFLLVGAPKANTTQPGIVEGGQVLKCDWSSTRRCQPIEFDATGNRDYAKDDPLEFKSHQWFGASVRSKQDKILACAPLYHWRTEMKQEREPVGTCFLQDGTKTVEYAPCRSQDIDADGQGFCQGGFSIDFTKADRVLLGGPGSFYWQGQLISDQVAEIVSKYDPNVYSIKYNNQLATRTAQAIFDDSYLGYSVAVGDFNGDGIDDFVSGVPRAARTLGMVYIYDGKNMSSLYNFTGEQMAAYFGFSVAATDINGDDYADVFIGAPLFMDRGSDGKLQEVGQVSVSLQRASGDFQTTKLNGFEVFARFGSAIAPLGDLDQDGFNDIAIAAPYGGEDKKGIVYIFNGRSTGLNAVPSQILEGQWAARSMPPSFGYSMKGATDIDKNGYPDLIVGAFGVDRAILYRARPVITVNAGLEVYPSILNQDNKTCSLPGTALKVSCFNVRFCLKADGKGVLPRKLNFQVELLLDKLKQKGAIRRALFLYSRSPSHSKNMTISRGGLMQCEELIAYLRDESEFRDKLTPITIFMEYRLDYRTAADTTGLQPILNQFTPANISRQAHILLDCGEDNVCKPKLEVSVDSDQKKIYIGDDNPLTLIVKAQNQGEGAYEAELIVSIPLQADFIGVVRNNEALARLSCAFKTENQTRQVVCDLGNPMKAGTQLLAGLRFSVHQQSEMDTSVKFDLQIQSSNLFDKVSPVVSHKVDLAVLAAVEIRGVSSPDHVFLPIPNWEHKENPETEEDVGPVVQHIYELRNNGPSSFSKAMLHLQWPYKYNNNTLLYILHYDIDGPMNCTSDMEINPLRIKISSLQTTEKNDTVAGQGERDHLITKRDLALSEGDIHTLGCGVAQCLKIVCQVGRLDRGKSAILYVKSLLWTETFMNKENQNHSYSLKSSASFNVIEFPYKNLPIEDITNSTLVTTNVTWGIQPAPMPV
T2 sequence (P05556 21-728 limits assumed): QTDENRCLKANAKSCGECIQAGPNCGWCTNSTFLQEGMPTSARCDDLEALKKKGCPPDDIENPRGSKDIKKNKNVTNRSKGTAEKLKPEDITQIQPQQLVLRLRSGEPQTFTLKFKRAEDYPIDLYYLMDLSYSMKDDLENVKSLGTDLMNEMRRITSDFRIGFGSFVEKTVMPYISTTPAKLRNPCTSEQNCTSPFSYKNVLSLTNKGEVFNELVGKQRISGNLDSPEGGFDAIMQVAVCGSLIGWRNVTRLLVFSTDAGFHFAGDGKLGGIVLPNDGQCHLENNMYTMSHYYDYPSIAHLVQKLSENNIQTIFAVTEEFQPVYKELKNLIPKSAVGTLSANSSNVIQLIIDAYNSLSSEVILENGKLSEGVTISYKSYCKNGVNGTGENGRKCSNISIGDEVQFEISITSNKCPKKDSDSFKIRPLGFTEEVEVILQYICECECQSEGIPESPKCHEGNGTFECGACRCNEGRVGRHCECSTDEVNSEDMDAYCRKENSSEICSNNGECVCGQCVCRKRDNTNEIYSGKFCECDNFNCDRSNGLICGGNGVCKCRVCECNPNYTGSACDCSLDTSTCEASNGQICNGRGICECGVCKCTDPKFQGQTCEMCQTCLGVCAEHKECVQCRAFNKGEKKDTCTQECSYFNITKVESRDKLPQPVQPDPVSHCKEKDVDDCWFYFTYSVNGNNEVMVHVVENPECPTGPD
T1 sequence (P06756 31-992 limits assumed): as the sequence (P06756 31-992 limits assumed) above
T1 sequence (P05106 27-718 limits assumed): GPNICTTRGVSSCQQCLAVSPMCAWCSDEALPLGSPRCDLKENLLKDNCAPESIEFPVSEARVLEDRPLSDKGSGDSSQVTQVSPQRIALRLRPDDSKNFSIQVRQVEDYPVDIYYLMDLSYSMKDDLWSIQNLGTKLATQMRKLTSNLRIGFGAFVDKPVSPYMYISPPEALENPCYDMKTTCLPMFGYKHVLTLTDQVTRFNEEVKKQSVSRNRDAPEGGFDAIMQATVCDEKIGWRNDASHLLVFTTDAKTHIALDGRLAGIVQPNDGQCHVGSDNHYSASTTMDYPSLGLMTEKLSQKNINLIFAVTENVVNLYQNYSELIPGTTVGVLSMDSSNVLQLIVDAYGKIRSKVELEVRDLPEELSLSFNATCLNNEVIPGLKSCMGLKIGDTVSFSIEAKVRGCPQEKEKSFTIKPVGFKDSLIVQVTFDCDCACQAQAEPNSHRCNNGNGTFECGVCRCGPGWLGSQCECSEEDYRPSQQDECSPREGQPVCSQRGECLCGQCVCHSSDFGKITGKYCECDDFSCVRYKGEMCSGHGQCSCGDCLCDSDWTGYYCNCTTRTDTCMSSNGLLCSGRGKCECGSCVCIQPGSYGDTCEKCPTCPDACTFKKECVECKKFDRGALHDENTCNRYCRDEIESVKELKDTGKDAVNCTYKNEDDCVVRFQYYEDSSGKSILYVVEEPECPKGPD

COc1ccc([C@H](CC(=O)O)N2CCN(CCCc3ccc4c(n3)NCCC4)C2=O)cn1 [Compound A, 3-{2-Oxo-3-[3-(5,6,7,8-tetrahydro-[1,8]naphthyridin-2-yl)-propyl]imidazolidin-1-yl}-3 (S)-(6-methoxy-pyridin-3-yl)-propionic acid]
pIC50 ([1]; αvβ3, first of two experiments): 8.28
pIC50 ([1]; αvβ3, second of two experiments): 9.48
ΔTm at 20 µM ([2]; first of two experiments): 19.4 °C
ΔTm at 20 µM ([2]; second of two experiments): 15.6 °C
effect on renal fibrosis score vs Obese Vehicle ([3]; 400 mpk at week 28): significantly decreased
markers of renal fibrosis ([3]; ZSF-1 rats vs untreated obese ZSF-1 rats (summary)): improvement in markers of renal fibrosis
renal fibrosis score (expressed as 0-5) ([3]; 200 mpk in-feed): 2.7 ± 0.1
renal fibrosis score (expressed as 0-5) ([3]; 400 mpk in-feed): 2.2 ± 0.1
effect on expression of key profibrotic genes and integrin beta3 in the kidney vs obese vehicle ([4]; 200 mpk or 400 mpk at week 28): significantly decreased
Collagen I (a1) expression in the kidney ([4]; 200 mpk in-feed): 0.79 ± 0.04
Collagen III (a1) expression in the kidney ([4]; 200 mpk in-feed): 0.60 ± 0.03
Integrin beta3 expression in the kidney ([4]; 200 mpk in-feed): 0.83 ± 0.03
PAI-1 expression in the kidney ([4]; 200 mpk in-feed): 0.80 ± 0.03
Collagen I (a1) expression in the kidney ([4]; 400 mpk in-feed): 0.66 ± 0.02
Collagen III (a1) expression in the kidney ([4]; 400 mpk in-feed): 0.52 ± 0.01
Integrin beta3 expression in the kidney ([4]; 400 mpk in-feed): 0.74 ± 0.03
PAI-1 expression in the kidney ([4]; 400 mpk in-feed): 0.66 ± 0.03

Source: patent US20180110762A1, “Compositions Methods for Treating Chronic Kidney Disease” (Merck Sharp & Dohme Corp, priority 2015, published 2018)
